In patent US9969972B2, “Pluripotent stem cell culture on micro-carriers” (Janssen Biotech, Inc., priority 2008, dated 2018):

Tests used:
H9 cells [1] = test: Rho kinase inhibitor concentration for attachment and growth of H9 cells on micro-carriers; type: cell-based, human; conditions: H9 passage 44, MEF-CM, rocking platform
Description: A starting aliquot of 13,333 cells/cm^2 H9 cells at passage 44 was seeded onto 15 cm^2 of micro-carriers in a single well of a 12 well non-tissue culture treated plate. The cells were placed at 37° C. for at least 60 minutes before placing them onto a rocking platform at 37° C. Prior to adding the cells, HILLEX®II (Solohill, MI) and Cytodex 3® (GE Healthcare Life Sciences, NJ) micro-carriers were prepared as directed by the manufacturer. Cells were grown in MEF-CM plus a range of Rho kinase inhibitor concentrations, Y27632 at 10, 5, 2.5 or 1 μM, or (S)-(+)-4-Glycyl-2-methyl-1-[(4-methyl-5-isoquinolinyl)sulfonyl]-hexahydro-1H-1,4-diazepine dihydrochloride (Glycyl-H 1152 dihydrochloride (H), Tocris, MO) at 5, 2.5, 1 or 0.5 μM). The medium was changed daily and one well of cells was counted at 4 and 7 days after seeding for yield and viability (FIGS. 7, A and B).

H1 cells [2] = test: Dose titration of Rho kinase inhibitor, H1 cells on micro-carriers; type: cell-based, human
Description: Next a dose titration of the Rho kinase inhibitor was attempted since it has been characterized as a […]. H1 cells at passage 48 were dissociated from MATRIGEL™ (BD Biosciences, CA) coated plates with TrypLE™ Express. The cells were then seeded onto 15 cm^2 of micro-carriers into a single well of a 12 well non-tissue culture treated plate. HILLEX®II (Solohill, MI), Cytodex 1®, or Cytodex 3® (GE Healthcare Life Sciences, NJ) micro-carriers were tested with decreasing amounts of Rho kinase inhibitor: 10 μM Y27632 (Sigma-Aldrich, MO) was used on day one followed by […] on day two (Y10/5 μM); 2.5 μM Glycyl-H 1152 dihydrochloride (Tocris, MO) was used on day one followed by 0.5 μM on day two (H2.5/0.5 μM); 1 μM Glycyl-H 1152 dihydrochloride (Tocris, MO) was used on day one followed by 0.5 μM Glycyl-H 1152 dihydrochloride (Tocris, MO) on day two (H1/0.5 μM); or continuous addition of 0.25 μM Glycyl-H 1152 dihydrochloride (Tocris, MO) was applied daily in MEF-CM (H0.25 μM). H1 cells and micro-carriers were agitated every 45 minutes for 3 hours at 37° C. before being placed on a rocking platform at 37° C. Cells were counted after 3, 5 and 7 days on the rocking platform at 37° C. (FIG. 8). Overall the best concentration of Glycyl-H 1152 dihydrochloride (Tocris, MO) was 1-2.5 μM on day one and 0.5 μM on day 2 followed by withdrawal of the compound. […] Using a minimal amount of Rho-kinase inhibitor also helps reduce costs for the process and maybe beneficial to cell proliferation.

H9 cells [3] = test: Proliferation of H9 cells on micro-carriers in defined medium; type: cell-based, human; conditions: H9 p64, StemPro, 2.5 μM, on Cytodex 3 micro-carriers
From the text: To manufacture a therapeutic product, it is desirable to remove any animal components from the human embryonic stem cell culture medium. Currently human embryonic stem cells are maintained on MATRIGEL™ (BD Biosciences, CA) in medium conditioned using mouse embryonic fibroblasts (MEF-CM). Both MATRIGEL™ (BD Biosciences, CA) and MEF-CM are derived from mouse cells. Additionally, MEF-CM is an expensive and time-consuming medium to generate. To determine if human embryonic stem cells can be sustained on micro-carriers with defined medium, H9 cells were seeded onto Cytodex 3® (GE Healthcare Life Sciences, NJ) and HILLEX®II (Solohill, MI) micro-carriers in the presence of Rho kinase inhibitors, 10 μM Y27632 (Sigma-Aldrich, MO) or 2.5 μM Glycyl-H 1152 dihydrochloride (Tocris, MO) in Stem Pro (Invitrogen, CA), mTESR (StemCell Technologies, Vancouver, Canada) or MEF-CM. The cells were placed in a 12 well dish on a rocking platform at 37° C. The cells were counted at days 3, 5 and 7. […] Therefore the micro-carrier type, Rho kinase inhibitor, and medium all play a role in determining the ability of human embryonic stem cells to proliferate.

H1 cells [4] = test: Proliferation of H1 cells on micro-carriers in defined medium; type: cell-based, human; conditions: H1 passage 38, MEF-CM
Description: H1 human embryonic stem cells at passage 38 were seeded onto either Cytodex 3® or HILLEX®II micro-carriers in the presence of Rho kinase inhibitors, 10 μM Y27632 (Sigma-Aldrich, MO) or 2.5 μM Glycyl-H 1152 dihydrochloride in mTESR (StemCell Technologies, Vancouver, Canada) or MEF-CM in a 12 well dish. The cells were placed on a rocking platform at 37° C. The cells were counted at days 3, 5 and 7.
Cells were incubated at 37° C. in a 10 cm^2 dish for 5 hours with agitation by hand every 45 minutes. mTESR (StemCell Technologies, Vancouver, Canada) plus 10 μM Y27632 (Sigma-Aldrich, MO) was changed every other day. This was conducted in parallel with cells grown in MEF-CM (Example 5).

[5] = tested on: H1 human embryonic stem cells; test: Single cell passage of H1 cells from fibroblast feeders to PRIMARIA; type: cell-based; conditions: feeder free/matrix free culture on PRIMARIA, greater than 8 passages
Description: Method: Cells were routinely passaged by aspirating media, washing with PBS, and then treating the cells with a dissociation enzyme (collagenase, Accutase™, or TrypLE). Collagenase was used at 1 mg/ml concentration; Accutase™ or TrypLE were used at 1× stock concentration. All enzymes were used after reaching room temperature. A solution of 2% BSA in DMEM/F12 was added to each well and cells were uniformly suspended in the solution after treating the cells with enzyme. Cells were then centrifuged for 5 minutes at 200 g, the cell pellet and additional 2% BSA in DMEM/F12 solution was added to resuspend cells and the cell suspension was distributed to three 50 ml sterile conical tubes and centrifuged for 5 min at 200 g.
Using a sequential method, the fibroblast feeders were removed by high density passaging the cluster/colony style human embryonic stem cells to a Primaria surface by treating the MEF based culture with either Accutase™, TrypLE™, or collagenase. […] Cell number for cells lifted with TrypLE™ or Accutase™ was determined by counting trypan blue stained cells with a hemocytometer. […]
2nd passage: Cells were passaged at a ratio of 1 to 4 using a 10 minutes exposure to TrypLE™ or Accutase™. A shorter enzyme exposure time, which was determined empirically by treating the cells and monitoring for detachment, was also introduced. […]

H1 and H9 cells = test: Attachment of H1 and H9 cells to micro-carrier beads in MEF-CM with 10 μM Y27632; type: cell-based, human; conditions: 10 μM in MEF-CM, static culture
Description: To improve the attachment and proliferation of human embryonic stem cells on micro-carriers, a small molecule inhibitor of Rho-associated coiled coil forming protein serine/threonine kinase, Rho kinase inhibitor was added to the media. Specifically, Y27632, Y, (Sigma-Aldrich, MO) was used. MEF-CM plus 10 μM Y27632 (Sigma-Aldrich, MO) was changed daily. […] By analysis of images, human embryonic stem cells grown on HILLEX®II micro-carriers (Solohill, MI) appeared to attach and proliferate better than human embryonic stem cells on other micro-carriers tested. Additionally, H9 cells attached better to HILLEX®II (Solohill, MI) in the presence of the Rho kinase inhibitor (FIG. 1A compared to 1B).
The H1 human embryonic cell line was also tested for growth on micro-carriers for large-scale expansion. Because a Rho kinase inhibitor, Y27632 (Sigma-Aldrich, MO), was necessary for attachment of the H9 cell line, it was also assumed to be necessary for H1 cells. Cytodex 1®, Cytodex 3® (GE Healthcare Life Sciences, NJ), HILLEX®II, Plastic, ProNectinF, Plastic Plus micro-carriers (SoloHill Ann Arbor, MI) were prepared according to the manufacturer's instructions. […] After 3, 5 and 7 days, one well was imaged, harvested, and counted. […] Cells were detached according to Example 4 and counted for yield.

Structure (SMILES) | concentration with the best attachment (day 4) (H9 cells [1]) [µM] | best concentration on day one (H1 cells [2]; H1 passage 48, MEF-CM, HILLEX II, Cytodex 1 or Cytodex 3) [µM] | best concentration on day 2 (H1 cells [2]; H1 passage 48, followed by withdrawal of the compound) [µM] | cell yield (H1 cells [2]; cells maintained in 0.25 μM continuously) | proliferation (H9 cells [3]) | growth (H1 cells [4]; 2.5 μM, on Cytodex 3) | pluripotency and differentiation capacity of culture [5] | attachment of H9 cells to micro-carriers (H1 and H9 cells) | effect of removal of the inhibitor on attachment (H1 cells [2]; H1 cells on micro-carriers) | expansion (H1 cells [4]; both micro-carrier types, 10 μM)
Cc1cncc2cccc(S(=O)(=O)N3CCCN(C(=O)CN)C[C@@H]3C)c12.Cl.Cl [Glycyl-H 1152 dihydrochloride, (S)-(+)-4-Glycyl-2-methyl-1-[(4-methyl-5-isoquinolinyl)sulfonyl]-hexahydro-1H-1,4-diazepine dihydrochloride] | 5 | 1 to 2.5 | 0.5 | poor cell yield | did not proliferate well | poor growth | retains pluripotency and the ability to differentiate to definitive endoderm | – | – | –
C[C@@H](N)[C@H]1CC[C@H](C(=O)Nc2ccncc2)CC1 [Y27632] | – | – | – | – | – | – | – | attached and formed aggregates with all micro-carriers tested | did not cause the H1 cells to dissociate | typical expansion characteristics
